Data taken from patent US7994326B2 (Northwestern University, priority 2003, dated 2011).

Tests used:
Type in all cases: biochemical
murine iNOS = molecular target: T1, murine iNOS (Mus musculus, UniProt P29477); experiment: NOS enzyme inhibitory assay (hemoglobin capture), iNOS; conditions: Table 1a; for Ki: apparent Ki calculated from IC50, Km […], read-out: calc. Ki iNOS; for IC50: murine iNOS, 10 μM L-arginine
T1 construct: made in house; host or cells: E. coli (plasmid pCWiNOS)
Text: (§1) All of the NOS isoforms used were recombinant enzymes overexpressed in E. coli from different sources. Nitric oxide formation from NOS was monitored by the hemoglobin capture assay as described in the literature.
Enzyme inhibitory assay. All of the NOS isoforms used are recombinant enzymes overexpressed in E. coli from different sources.
iNOS expression: An overnight culture of pCWiNOS was used to inoculate (1:100) larger cultures of Terrific Broth media (12 g/L tryptone, 24 g/L yeast extract, 4 mL/L glycerol, 17 mM KH2PO4, and 72 mM K2HPO4) containing 50 μg/mL ampicillin and 34 μg/mL chloramphenicol at 37° C. At an OD600 of ˜0.5, the culture was cooled to 25° C. and induced by the addition of 1 mM IPTG (final concentration). After approximately 24 h of growth at 25° C., the cells were pelleted at 5300×g, transferred to 50 mL conical tubes, and stored at −80° C.
iNOS purification: Cell pellets from 1.0 L of culture were resuspended in sonication buffer (50 mM Hepes, pH 7.4, 10% glycerol, 10 μg/mL benzamidine, 5 μg/mL leupeptin, 0.2 mM of PMSF, and 1 μg/mL each of pepstatin, chymostatin, and antipain) and lysed by sonication. Centrifugation for 20 min at 13000×g yielded supernatant which contained iNOS active enzyme. iNOS supernatant was loaded onto 1 g of a 2′,5′-ADP-Sepharose 4B resin column. The column was then washed with 20 ml iNOS purification buffer (10 mM K2HPO4, 10% glycerol, 0.5 mM L-arginine, pH 7.4) and 10 μM BH4. Inducible NOS was eluted with 30 ml iNOS purification buffer supplemented with 10 mM 2′(3′)-AMP, 10 μM BH4, and 0.3 M NaCl. The eluent was concentrated to 5 ml by ultrafiltration. The above concentration operation was repeated three times more with 10 ml Hepes buffer supplemented with 10 μM BH4, to give purified inducible NOS.
(§2) Nitric oxide formation from NOS was monitored by the hemoglobin capture assay as described previously. (Hevel, J. M.; Marletta, M. A. Nitric Oxide Synthase Assays. Methods Enzymol. 1994, […], 250-258).
(§3) The selectivity of an inhibitor is defined as the ratio of the respective Ki values.

rat nNOS = molecular target: T2, rat nNOS (Rattus norvegicus, UniProt P29476); experiment: NOS enzyme inhibitory assay (hemoglobin capture), nNOS; conditions: Table 1a; for Selectivity n/i: Ki(iNOS)/Ki(nNOS); for Ki: apparent Ki calculated from IC50, Km […], read-out: calc. Ki nNOS; for IC50: rat nNOS, 10 μM L-arginine
T2 construct: made in house; host or cells: E. coli (plasmid pCWnNOS)
Experimental: as §1
After approximately 48 h of post-induction incubation in the dark at 25° C. the cells were pelleted at 5300×g, transferred to 50 mL conical tubes, and stored at −80° C.
nNOS purification: Cell pellets from 2.0 L of culture were resuspended in sonication Buffer A (50 mM Tris Base Buffer, pH 8.0, 10% glycerol), 2 mg/ml lysozyme. 0.5 mM L-arginine. 1 mM EDTA, 0.1 mM PMSF, 1 µg/ml antipain, and 1 μM each of leupeptin, […], and […]) and lysed by sonication. Centrifugation for 1 h at 100000×g yielded supernatant which contained nNOS active enzyme. The supernatant was brought to 2 mM CaCl2 and the protein was loaded onto a 15 ml calmodulin-Sepharose column equilibrated with Buffer A containing 2 mM CaCl2. The column was washed with 100 ml Buffer B (50 mM Hepes, 5 mM DTT, and […]) containing 2 mM CaCl2, 0.5 mM L-arginine, and 10 μM BH4, and eluted with 30 ml Buffer B supplemented with 0.3 M NaCl, 5 mM EGTA, 0.5 mM L-arginine, and 10 μM BH4. The protein was then loaded onto a 5 ml 2′,5′-ADP-Sepharose column equilibrated with Buffer B supplemented with 0.3 M NaCl, 0.5 mM L-arginine, and 10 μM BH4. The column was washed with 25 ml Buffer B containing 0.5 mM L-arginine and 10 μM BH4, and then 25 ml of Buffer B only supplemented with 10 μM BH4 (without L-arginine). Neuronal NOS was eluted with 20 ml Buffer B supplemented with 10 mM 2′(3′)-AMP, 10 μM BH4 and 0.3 M NaCl. The 20 ml eluent was then concentrated to 5 ml by ultrafiltration. The above concentration operation was repeated twice more with 10 ml Buffer B supplemented with 10 µM BH4 to give the purified neuronal NOS.
Nitric oxide formation from NOS was monitored by the hemoglobin capture assay as described previously.
as §3

bovine eNOS = molecular target: T3, bovine eNOS (Bos taurus, UniProt P29473); experiment: NOS enzyme inhibitory assay (hemoglobin capture), eNOS; conditions: Table 1b; read-out: Ki eNOS
T3 construct: made in house; host or cells: E. coli (plasmid Bov-eNOSpCW)
Experimental: as §1
Expression of bovine eNOS: An overnight culture of Bov-eNOSpCW was used to inoculate 0.5 liter (in a 2.8-liter Fernbach flask) of modified TB (20 g of yeast extract, 10 g of bacto-tryptone, 2.65 g of KH2PO4, 4.33 g of Na2HPO4 and 4 ml of glycerol per liter) containing ampicillin ([…]) and chloramphenicol ([…]). The cultures were grown to an OD600 of z0.8 at 22° C. (200 rpm) and induced with 0.5 mM IPTG. One hour before IPTG induction, d-aminolevulinic acid (0.5 mM final) was added and, at the time of IPTG induction, riboflavin ([…]) and ATP (1 mM final) were also added. After induction, the flasks were kept in the dark at 22° C. (200 rpm). The cells were harvested 48 h after induction, and the cell pellet was frozen at −80° C. until purification was carried out.
Purification of bovine eNOS. The purification was typically carried out with eNOS from 2 liters of E. coli culture. The eNOS protein was purified using a modification of the published protocol for nNOS (14). The cells were resuspended in buffer C [50 mM Tris-Cl, pH 7.8, 1 mM EDTA, 1 mM DTT, 10% glycerol (v/v), 150 mM NaCl, 0.1 mM phenylmethylsulfonyl fluoride, […]], lysed by pulsed sonication and then centrifuged to sediment the cell debris. The supernatant was applied to a 2′,5′-ADP Sepharose 4B column equilibrated in buffer D [50 mM Tris-Cl, pH 7.8, 0.1 mM EDTA, 0.1 mM dithiothreitol, 150 mM NaCl, 10% glycerol (v/v)]. The column was washed with 20 column volumes of buffer B and again with 20 column volumes of buffer B containing 600 mM NaCl. Finally, protein was eluted with buffer B containing 600 mM NaCl and 5 mM 2′-AMP. The fractions were screened for absorption in the Soret region (A400) and hemoprotein-containing fractions were pooled and concentrated (Centriprep 50, Amicon). Repeated dilution/concentration [50 mM Tris-Cl, pH 7.8, 0.1 mM EDTA, 0.1 mM dithiothreitol, 10% glycerol (vol/vol)] was used to reach a final concentration of 150 mM NaCl and commensurately reduce the 2′-AMP content. […] The purified eNOS is stored in the presence of 1 mM L-arginine.
eNOS washing: eNOS contains a significant amount of L-arginine, which will interfere with the enzyme assay. The L-arginine can be removed by several dilution and concentration steps using an Amico concentrator. The dilution buffer is 10 ml Tris-HCl 50 mM containing 0.1 mM EDTA, 400 mM NaCl, 10% glycerol and 1 mM beta-mercaptoethanol. The above dilution and concentration operation was repeated three times to give purified eNOS.
as §2, §3

SMILES | Ki (murine iNOS) [µM] | IC50 (murine iNOS) [µM] | Selectivity n/i (rat nNOS) | Ki (rat nNOS) [µM] | IC50 (rat nNOS) [µM] | Ki (bovine eNOS) [µM]
Cl.Cl.Nc1cccc(CC2CN(Cc3ccccc3)CC2O)n1 (racemic) [Compound P-1] | 919 | 2030 | 11.71 | 78.5 | 682 | –
Cl.Cl.Cl.Nc1cccc(C[C@H]2CN(Cc3ccccc3)C[C@@H]2NCCCc2ccccc2)n1 (racemic) [Compound P-2] | 60.1 | 132 | 4.3 | 14 | 122 | –
Cl.Cl.Cl.Nc1cccc(C[C@H]2CN(Cc3ccccc3)C[C@@H]2NCCCO)n1 (racemic) [Compound P-3] | 1750 | 3860 | 9.19 | 190 | 1650 | –
Cl.Cl.Cl.Nc1cccc(C[C@H]2CN(Cc3ccccc3)C[C@H]2NCCCc2ccccc2)n1 (racemic) [Compound P-4] | 609 | 1340 | 12.71 | 47.9 | 417 | –
Cl.Cl.Cl.Nc1cccc(CC2CN(Cc3ccccc3)CC2NCCCO)n1 (racemic) [Compound P-5] | 2520 | 5560 | 8.27 | 305 | 2650 | –
Cl.Cl.Cl.NCCN1C[C@H](Cc2cccc(N)n2)[C@@H](O)C1 (racemic) [Compound P-6] | 105 | 231 | 8.41 | 12.4 | 108 | –
Cl.Cl.Cl.Cl.NCCN1CC(Cc2cccc(N)n2)C(NCCCc2ccccc2)C1 (racemic) [Compound P-7] | 438 | 965 | 109.99 | 3.98 | 34.6 | –
NCCN1CC(Cc2cccc(N)n2)C(NCCCO)C1 (racemic) [Compound P-8] | 652 | 1440 | – | – | – | –
Cl.Cl.Cl.Cl.NCCN1CC(Cc2cccc(N)n2)C(NCCCc2ccccc2)C1 (racemic) [Compound P-9] | 295 | 649 | 10.28 | 28.6 | 249 | –
NCCN1C[C@H](Cc2cccc(N)n2)[C@H](NCCCO)C1 (racemic) [Compound P-10] | 1250 | 2760 | – | – | – | –
Nc1cccc(CC2CNCC2NCCCO)n1 (racemic) [Compound P-13] | 234 | 515 | – | – | – | –
Nc1cccc(C[C@H]2CNC[C@H]2NCCCO)n1 (racemic) [Compound P-28] | 143 | 315 | – | – | – | –
Cl.Cl.Cl.Cl.NCCNC1CC(N)CC1Cc1cccc(N)n1 (racemic) [Compound P-44] | 51.9 | 114 | 21.02 | 2.47 | 21.5 | –
Cl.Cl.Cl.Cl.NCCNC1CC(N)CC1Cc1cccc(N)n1 (racemic) [Compound P-45] | 71.5 | 158 | 15.51 | 4.61 | 40.1 | –
Cc1cc(N)nc(CC2CNCC2NCCNCc2ccc(C(F)(F)F)cc2)c1.Cl.Cl.Cl.Cl (racemic) [Compound P-56] | – | – | – | – | – | 61.2
Cl.Cl.Cl.Cl.Nc1cccc(CC2CNCC2NCC2CCCN2)n1 (stereo not drawn) [Compound P-23] | 104 | 229 | 9.30 | 11.2 | 96.9 | –
Cl.Cl.Cl.Cl.Nc1cccc(CC2CNCC2NCC2CCCN2)n1 (stereo not drawn) [Compound P-24] | 306 | 674 | 21.15 | 14.5 | 126 | –
Cl.Cl.Cl.Cl.Nc1cccc(CC2CNCC2NCC2CCCN2)n1 (stereo not drawn) [Compound P-25] | 18.5 | 40.8 | 7.58 | 2.44 | 21.2 | –
Cl.Cl.Cl.Cl.Nc1cccc(C[C@@H]2CNC[C@H]2NC[C@H]2CCCN2)n1 [Compound P-26] | 170 | 375 | 13.82 | 12.3 | 107 | –
Cl.Cl.Cl.Cl.Nc1cccc(CC2CNCC2NCC2CCCN2)n1 (stereo not drawn) [Compound P-40] | 82.4 | 182 | 23.95 | 3.44 | 29.9 | –
Cl.Cl.Cl.Cl.Nc1cccc(C[C@@H]2CNC[C@@H]2NC[C@@H]2CCCN2)n1 [Compound P-41] | 26.4 | 58.3 | 4.67 | 5.66 | 49.2 | –
Cl.Cl.Cl.Cl.Nc1cccc(C[C@H]2CNC[C@H]2NC[C@H]2CCCN2)n1 [Compound P-42] | 70 | 154 | 31.97 | 2.19 | 19 | –
Cl.Cl.Cl.Cl.Nc1cccc(C[C@@H]2CNC[C@@H]2NC[C@H]2CCCN2)n1 [Compound P-43] | 42 | 92.5 | 9.22 | 4.55 | 39.5 | –
